Test results published in patent US12460243B2, “Mass spectrometry determination of the sensitivity or resistance of bacteria to an antibiotic” (priority 2019, dated 2025).
Bridge positions count the residues as written; N and C are the ends. Square brackets hold non-standard residues; d marks the D form. Peptide text beside a SMILES is read from it. * marks the point of attachment. Heptanoyl(6-Me) = CC(C)CCCCC(=O)*; Dab = NCC[C@H](N)C(=O)O

Test system: Klebsiella pneumoniae
Assay: MALDI-TOF detection of released characteristic proteins, 10 min at 50° C., filtration (examples V, VI)
Format: cell-based
Conditions: colistin 2.5 mg/ml, 10 min 50° C.
Experimental: The tests were carried out using the following steps: • preparing a suspension of microorganism at 2 McF in water (suspension medium, bioMérieux reference 70700), • preparing a solution of colistin sulfate (Sigma reference C4461) at a concentration of 2× in pure water (taking into account the colistin titer indicated by the manufacturer).
The proteins characteristic of the species Klebsiella pneumoniae are the DNA binding protein H-NS, the ribosomal proteins L29, L31, L34 and US9, the cold shock protein containing a CsbD domain (CsbD domain-containing protein), and the uncharacterized proteins with m/z 6290 and 8308. These proteins are characterized respectively by the peaks at 7705 (DNA binding protein H-NS), 7274 (L29), 7743 (L31), 5381 (L34), 7384 (US9), 8309 (CsbD), more or less 1000 parts per million (ppm). For their part, the hypothetical proteins are characterized by peaks at 6290 and […], more or less 1000 parts per million (ppm).
In the context of this example, the tests were carried out with the method of the present invention to determine the sensitivity or resistance of several bacteria of several strains such as in example V and comprising the following steps: • measuring the intensity of each peak observed, • finding a ratio between the sum of the intensities of the protein peaks of the microorganism and at least 1 peak of colistin. • determining the status, resistant or sensitive to colistin, as a function of the sum of the ratios obtained and of a threshold fixed for each species. • a resistant microorganism will have a low ratio and a sensitive microorganism will have a high ratio.
The K. pneumoniae strains KP S10-1, KP S10-2, KP S15-1, KP S15-2, KP R9-1, KP R9-2, KP R16-1 and KP R16-2 are also studied and the proteins characteristic of the species K. pneumoniae are analyzed. These characteristic proteins are the DNA binding protein H-NS, the ribosomal proteins L29, L31, L34 and US9, the cold shock protein containing a CsbD domain (CsbD domain-containing protein), and the uncharacterized proteins with m/z 6290 and 8308.

**Q.** With `CC(C)CCCCC(=O)N[C@@H](CCN)C(=O)N[C@H](C(=O)N[C@@H](CCN)C(=O)N[C@H]1CCNC(=O)[C@H]([C@@H](C)O)NC(=O)[C@H](CCN)NC(=O)[C@H](CCN)NC(=O)[C@H](CC(C)C)NC(=O)[C@@H](CC(C)C)NC(=O)[C@H](CCN)NC1=O)[C@@H](C)O` [colistin] ({Heptanoyl(6-Me)}-[Dab]T[Dab][Dab][Dab][dL]L[Dab][Dab]T; lactam 4-C) as the compound, how does the “Aire sous la courbe des pics observés, 6290” value (strain KP R9-1) read?
**A.** The value was 0.00 unité arbitraire.

**Q.** And the “Aire sous la courbe des pics observés, 8308” value (strain KP R9-1)?
**A.** Its value is 0 unité arbitraire.

**Q.** What about the “Aire sous la courbe des pics observés, CsbD domain-containing protein” value (strain KP R9-1) of the same compound?
**A.** The value was 0 unité arbitraire.

**Q.** What about the “Aire sous la courbe des pics observés, DNA binding protein H-NS” value (strain KP R9-1) of the same compound?
**A.** Its value is 0.00 unité arbitraire.

**Q.** What about the “Aire sous la courbe des pics observés, Protéine ribosomique 50S L29” value (strain KP R9-1) of the same compound?
**A.** Its value is 0 unité arbitraire.

**Q.** And the “Aire sous la courbe des pics observés, Protéine ribosomique 50S L31” value (strain KP R9-1)?
**A.** The value was 0 unité arbitraire.

**Q.** What about the “Aire sous la courbe des pics observés, Protéine ribosomique 50S L34” value (strain KP R9-1) of the same compound?
**A.** Its value is 0 unité arbitraire.

**Q.** And the “Aire sous la courbe des pics observés, US9” value (strain KP R9-1)?
**A.** The value was 0 unité arbitraire.

**Q.** What about the “Ratio par protéine 6290/Colistine” value (strain KP R9-1) of the same compound?
**A.** The value was 0.00.

**Q.** What about the “Ratio par protéine 8308/Colistine” value (strain KP R9-1) of the same compound?
**A.** The value was 0.00.

**Q.** What about the “Ratio par protéine CsbD/Colistine” value (strain KP R9-1) of the same compound?
**A.** Its value is 0.00.

**Q.** And the “Ratio par protéine DNA BP H-NS/Colistine” value (strain KP R9-1)?
**A.** The value was 0.00.

**Q.** What about the “Ratio par protéine L29/Colistine” value (strain KP R9-1) of the same compound?
**A.** Its value is 0.00.

**Q.** What about the “Ratio par protéine L31/Colistine” value (strain KP R9-1) of the same compound?
**A.** Its value is 0.00.

**Q.** And the “Ratio par protéine L34/Colistine” value (strain KP R9-1)?
**A.** Its value is 0.00.

**Q.** What about the “Ratio par protéine US9/Colistine” value (strain KP R9-1) of the same compound?
**A.** Its value is 0.00.

**Q.** What about the Somme des ratios (strain KP R9-1) of the same compound?
**A.** Its Somme des ratios is 0.00.

**Q.** And the “Aire sous la courbe des pics observés, 6290” value (strain KP R9-2)?
**A.** Its value is 0.00 unité arbitraire.

**Q.** What about the “Aire sous la courbe des pics observés, 8308” value (strain KP R9-2) of the same compound?
**A.** Its value is 0 unité arbitraire.

**Q.** What about the “Aire sous la courbe des pics observés, CsbD domain-containing protein” value (strain KP R9-2) of the same compound?
**A.** Its value is 0 unité arbitraire.

**Q.** And the “Aire sous la courbe des pics observés, DNA binding protein H-NS” value (strain KP R9-2)?
**A.** The value was 89 unité arbitraire.

**Q.** What about the “Aire sous la courbe des pics observés, Protéine ribosomique 50S L29” value (strain KP R9-2) of the same compound?
**A.** Its value is 0 unité arbitraire.

**Q.** What about the “Aire sous la courbe des pics observés, Protéine ribosomique 50S L31” value (strain KP R9-2) of the same compound?
**A.** The value was 0 unité arbitraire.

**Q.** What about the “Aire sous la courbe des pics observés, Protéine ribosomique 50S L34” value (strain KP R9-2) of the same compound?
**A.** Its value is 0 unité arbitraire.

**Q.** And the “Aire sous la courbe des pics observés, US9” value (strain KP R9-2)?
**A.** Its value is 0 unité arbitraire.

**Q.** What about the “Ratio par protéine 6290/Colistine” value (strain KP R9-2) of the same compound?
**A.** Its value is 0.00.

**Q.** What about the “Ratio par protéine 8308/Colistine” value (strain KP R9-2) of the same compound?
**A.** The value was 0.00.

**Q.** What about the “Ratio par protéine CsbD/Colistine” value (strain KP R9-2) of the same compound?
**A.** Its value is 0.00.

**Q.** What about the “Ratio par protéine DNA BP H-NS/Colistine” value (strain KP R9-2) of the same compound?
**A.** The value was 0.11.

**Q.** What about the “Ratio par protéine L29/Colistine” value (strain KP R9-2) of the same compound?
**A.** The value was 0.00.

**Q.** And the “Ratio par protéine L31/Colistine” value (strain KP R9-2)?
**A.** The value was 0.00.

**Q.** What about the “Ratio par protéine L34/Colistine” value (strain KP R9-2) of the same compound?
**A.** The value was 0.00.

**Q.** What about the “Ratio par protéine US9/Colistine” value (strain KP R9-2) of the same compound?
**A.** Its value is 0.00.

**Q.** And the Somme des ratios (strain KP R9-2)?
**A.** The Somme des ratios was 0.11.

**Q.** What about the “Aire sous la courbe des pics observés, 6290” value (strain KP R16-1) of the same compound?
**A.** The value was 0.00 unité arbitraire.

**Q.** And the “Aire sous la courbe des pics observés, 8308” value (strain KP R16-1)?
**A.** The value was 0 unité arbitraire.

**Q.** What about the “Aire sous la courbe des pics observés, CsbD domain-containing protein” value (strain KP R16-1) of the same compound?
**A.** Its value is 0 unité arbitraire.

**Q.** What about the “Aire sous la courbe des pics observés, DNA binding protein H-NS” value (strain KP R16-1) of the same compound?
**A.** Its value is 0.00 unité arbitraire.

**Q.** What about the “Aire sous la courbe des pics observés, Protéine ribosomique 50S L29” value (strain KP R16-1) of the same compound?
**A.** The value was 0 unité arbitraire.

**Q.** What about the “Aire sous la courbe des pics observés, Protéine ribosomique 50S L31” value (strain KP R16-1) of the same compound?
**A.** Its value is 0 unité arbitraire.

**Q.** And the “Aire sous la courbe des pics observés, Protéine ribosomique 50S L34” value (strain KP R16-1)?
**A.** Its value is 0 unité arbitraire.

**Q.** What about the “Aire sous la courbe des pics observés, US9” value (strain KP R16-1) of the same compound?
**A.** The value was 0 unité arbitraire.

**Q.** What about the “Ratio par protéine 6290/Colistine” value (strain KP R16-1) of the same compound?
**A.** The value was 0.00.

**Q.** And the “Ratio par protéine 8308/Colistine” value (strain KP R16-1)?
**A.** The value was 0.00.

**Q.** What about the “Ratio par protéine CsbD/Colistine” value (strain KP R16-1) of the same compound?
**A.** Its value is 0.00.

**Q.** And the “Ratio par protéine DNA BP H-NS/Colistine” value (strain KP R16-1)?
**A.** Its value is 0.00.

**Q.** What about the “Ratio par protéine L29/Colistine” value (strain KP R16-1) of the same compound?
**A.** Its value is 0.00.

**Q.** What about the “Ratio par protéine L31/Colistine” value (strain KP R16-1) of the same compound?
**A.** Its value is 0.00.

**Q.** What about the “Ratio par protéine L34/Colistine” value (strain KP R16-1) of the same compound?
**A.** The value was 0.00.

**Q.** And the “Ratio par protéine US9/Colistine” value (strain KP R16-1)?
**A.** The value was 0.00.

**Q.** And the Somme des ratios (strain KP R16-1)?
**A.** Its Somme des ratios is 0.00.

**Q.** And the “Aire sous la courbe des pics observés, 6290” value (strain KP R16-2)?
**A.** Its value is 0.00 unité arbitraire.

**Q.** And the “Aire sous la courbe des pics observés, 8308” value (strain KP R16-2)?
**A.** Its value is 0 unité arbitraire.

**Q.** And the “Aire sous la courbe des pics observés, CsbD domain-containing protein” value (strain KP R16-2)?
**A.** Its value is 0 unité arbitraire.

**Q.** What about the “Aire sous la courbe des pics observés, DNA binding protein H-NS” value (strain KP R16-2) of the same compound?
**A.** The value was 0.00 unité arbitraire.

**Q.** And the “Aire sous la courbe des pics observés, Protéine ribosomique 50S L29” value (strain KP R16-2)?
**A.** The value was 0 unité arbitraire.

**Q.** What about the “Aire sous la courbe des pics observés, Protéine ribosomique 50S L31” value (strain KP R16-2) of the same compound?
**A.** Its value is 0 unité arbitraire.

**Q.** What about the “Aire sous la courbe des pics observés, Protéine ribosomique 50S L34” value (strain KP R16-2) of the same compound?
**A.** The value was 0 unité arbitraire.

**Q.** What about the “Aire sous la courbe des pics observés, US9” value (strain KP R16-2) of the same compound?
**A.** The value was 0 unité arbitraire.

**Q.** What about the “Ratio par protéine 6290/Colistine” value (strain KP R16-2) of the same compound?
**A.** The value was 0.00.

**Q.** What about the “Ratio par protéine 8308/Colistine” value (strain KP R16-2) of the same compound?
**A.** Its value is 0.00.

**Q.** What about the “Ratio par protéine CsbD/Colistine” value (strain KP R16-2) of the same compound?
**A.** The value was 0.00.

**Q.** And the “Ratio par protéine DNA BP H-NS/Colistine” value (strain KP R16-2)?
**A.** The value was 0.00.

**Q.** And the “Ratio par protéine L29/Colistine” value (strain KP R16-2)?
**A.** The value was 0.00.

**Q.** What about the “Ratio par protéine L31/Colistine” value (strain KP R16-2) of the same compound?
**A.** Its value is 0.00.

**Q.** What about the “Ratio par protéine L34/Colistine” value (strain KP R16-2) of the same compound?
**A.** Its value is 0.00.

**Q.** What about the “Ratio par protéine US9/Colistine” value (strain KP R16-2) of the same compound?
**A.** Its value is 0.00.

**Q.** And the Somme des ratios (strain KP R16-2)?
**A.** The Somme des ratios was 0.00.

**Q.** And the “Aire sous la courbe des pics observés, 6290” value (strain KP S10-1)?
**A.** The value was 837 unité arbitraire.

**Q.** What about the “Aire sous la courbe des pics observés, 8308” value (strain KP S10-1) of the same compound?
**A.** Its value is 209 unité arbitraire.

**Q.** And the “Aire sous la courbe des pics observés, CsbD domain-containing protein” value (strain KP S10-1)?
**A.** Its value is 0 unité arbitraire.

**Q.** And the “Aire sous la courbe des pics observés, DNA binding protein H-NS” value (strain KP S10-1)?
**A.** The value was 374 unité arbitraire.
